{"source": "ChEMBL document CHEMBL2177097", "about": "“Discovery of (2S,3R)-N-[2-(pyridin-3-ylmethyl)-1-azabicyclo[2.2.2]oct-3-yl]benzo[b]furan-2-carboxamide (TC-5619), a selective α7 nicotinic acetylcholine receptor agonist, for the treatment of cognitive disorders” (J Med Chem, 2012)", "key": {"[1]": {"experiment": "Ratio of drug level in brain to plasma in rat measured 6 hrs post dose", "type": "ADME", "details": "brain and plasma, read-out: BPR"}, "[2]": {"experiment": "Half life in rat", "type": "ADME, organism-based", "details": "in vivo"}, "[3]": {"experiment": "Oral bioavailability in rat", "type": "ADME, organism-based", "details": "in vivo"}, "[4]": {"experiment": "Drug degradation in human liver microsomes at 60 mins", "type": "ADME, Microsome", "details": "read-out: Drug degradation"}, "[5]": {"experiment": "Drug degradation in human hepatocytes at 4 hrs", "type": "ADME, cell-based, Hepatocyte", "details": "read-out: Drug degradation"}}}
{"smiles": "O=C(N[C@@H]1C2CCN(CC2)[C@H]1Cc1cccnc1)c1cc2ccccc2o1", "note": "[BRADANICLINE]", "values": [{"measurement": "Kp at 6 h", "setting": "[1]", "result": 0.4}, {"measurement": "half-life", "setting": "[2]", "result": 2, "unit": "h"}, {"measurement": "bioavailability", "setting": "[3]", "result": 20, "unit": "%"}, {"measurement": "metabolised at 1 h", "setting": "[4]", "result": "< 25", "unit": "%"}, {"measurement": "metabolised at 4 h", "setting": "[5]", "result": 27, "unit": "%"}]}
